Columns and labels:
[1] = test system: PANC-1 pancreatic cancer cell line; experiment: Methyl-Tetrazolium viability assay, PANC-1; format: cell-based, human; design: key to Average MTT: absorbance at 570 nm (optical density); conditions: for ABSORBANCE: 0.1 μg/mL cisplatin; for MTT 24 h / MTT 48 h / MTT 72 h: Run 1 average
Source text: The Methyl-Tetrazolium dye assay measures the activity of enzymes in mitochondria. The dye precursor is taken up by cells, where it undergoes reduction to the purple formazan. It measures only the mitochondrial activity and, thus, it is not always a reliable indication of whether the cells themselves are alive or dead, since even a recently dead cell has […] enzyme activity in mitochondria. Intracellular glucose concentration, pH, and time before assay all affect the measurements.
(§1) The Methyl Tetrazolium, Sulforhodamine B, and Crystal Violet assays were used to assess cell viabilities. The incubation times were 24 hours, 48 hours, and 72 hours. The Nerium oleander extract Anvirzel™ (a hot water extract of oleander obtained from Salud Integral, Honduras) was tested in concentrations ranging from 0.01 ng/mL to 10 ng/mL.
(§2) Cells were detached by trypsinization (Trypsin-0.25% EDTA, Invitrogen, 25200-072) during the logarithmic phase of culture growth and plated in 96-well plates (18.000 cells/well) (Corning, Costar 359) in a final volume of 200 μl of medium per well. […] The absorbance was measured after 24 hours, 48 hours, and 72 hours of incubation.
For the Methyl-Tetrazolium assay, the dye (Sigma, M2128; 5 mg/mL, diluted in phosphate-buffered saline) was added to each well and plates were incubated for 3 hours at 37° C. After the end of the incubation period, the medium was discarded and the cells were rinsed with phosphate-buffered saline. Finally, the formazan crystals were dissolved in dimethylsulphoxide (Sigma, D4540).
(§3) The optical density of each plate was measured on a μQuant spectrophotometer and the data were analyzed with Gen5 software (μQuant Biomolecular Spectrophotometer MQX200 and Gen5™ Microplate Data Collection & Analysis software, BioTek® Instruments. Inc, April 2008). Absorbance was measured at 570 nm for all assays and a second wavelength was measured in order to subtract noise. For the Methyl-Tetrazolium assay this second wavelength was 630 nm and for the Sulforhodamine B and Crystal Violet assays it was 690 nm.

[2] = test system: PANC-1 pancreatic cancer cell line; experiment: Crystal Violet viability assay, PANC-1; format: cell-based, human; conditions: for ABSORBANCE: 0.1 μg/mL cisplatin; for CVE 24 h / CVE 48 h / CVE 72 h: Run 1 average
Source text: Three different viability assays were chosen to complement each other and yielded results dependent on concentration and cell line: the Methyl Tetrazolium dye assay, the Sulforhodamine B fluorescent dye assay, and the Crystal Violet dye assay.
The Sulforhodamine B and Crystal Violet assays provide information about protein and were used to complement the Methyl-Tetrazolium dye assay. […] It is used for the quantification of cellular proteins of cultured cells. The assay using Crystal Violet, a dye that binds electrostatically to proteins and stains DNA, provides a reliable, simple assay for measuring viability of cells.
as §1, §2
For the Crystal Violet assay, the medium was removed from the 96-well plates, the plates rinsed with PBS (Sigma, P3813) and then the cells were […] by the addition of 10% formalin (MERCK, 1.04003.2500) for 20 minutes at RT. Formalin was removed and 0.25% aqueous crystal violet (Sigma, HT901), dissolved in water, was added for 10 minutes at RT. Unbound Crystal Violet was rinsed by washing with water and finally 33% acetic acid was added to dissolve the dye.
as §3

[3] = PANC-1, Run 2, 24 h, 0.1 μg/ml CDDP
[4] = PANC-1, Run 2, 24 h, 1 μg/ml CDDP
[5] = PANC-1, Run 2, 24 h, 10 μg/ml CDDP
[6] = PANC-1, Run 2, 24 h, 100 μg/ml CDDP
[7] = PANC-1, Run 2, 48 h, 0.1 μg/ml CDDP
[8] = PANC-1, Run 2, 48 h, 1 μg/ml CDDP
[9] = PANC-1, Run 2, 48 h, 10 μg/ml CDDP
[10] = PANC-1, Run 2, 48 h, 100 μg/ml CDDP
[11] = PANC-1, Run 2, 72 h, 0.1 μg/ml CDDP
[12] = PANC-1, Run 2, 72 h, 1 μg/ml CDDP
[13] = PANC-1, Run 2, 72 h, 10 μg/ml CDDP
[14] = PANC-1, Run 2, 72 h, 100 μg/ml CDDP
[15] = PANC-1, Run 3, 24 h, 0.1 μg/ml CDDP
[16] = PANC-1, Run 3, 24 h, 1 μg/ml CDDP
[17] = PANC-1, Run 3, 24 h, 10 μg/ml CDDP
[18] = PANC-1, Run 3, 24 h, 100 μg/ml CDDP
[19] = PANC-1, Run 3, 48 h, 0.1 μg/ml CDDP
[20] = PANC-1, Run 3, 48 h, 1 μg/ml CDDP
[21] = PANC-1, Run 3, 48 h, 10 μg/ml CDDP
[22] = PANC-1, Run 3, 48 h, 100 μg/ml CDDP
[23] = PANC-1, Run 3, 72 h, 0.1 μg/ml CDDP
[24] = PANC-1, Run 3, 72 h, 1 μg/ml CDDP
[25] = PANC-1, Run 3, 72 h, 10 μg/ml CDDP
[26] = PANC-1, Run 3, 72 h, 100 μg/ml CDDP

N.N.[Cl][Pt][Cl] [cisplatin]
ABSORBANCE ([1]; PANC-1, 48 h): 0.286 | ABSORBANCE ([1]; PANC-1, 72 h): 0.344 | Average MTT [1, 3]: 0.096 | Average MTT [1, 4]: 0.029 | Average MTT [1, 5]: 0.058 | Average MTT [1, 6]: 0.029 | Average MTT [1, 7]: 0.178 | Average MTT [1, 8]: 0.037 | Average MTT [1, 9]: 0.041 | Average MTT [1, 10]: 0.034 | Average MTT [1, 11]: 0.241 | Average MTT [1, 12]: 0.033 | Average MTT [1, 13]: 0.04 | Average MTT [1, 14]: 0.033 | Average MTT [1, 15]: 0.076 | Average MTT [1, 16]: 0.02 | Average MTT [1, 17]: 0.04 | Average MTT [1, 18]: 0.022 | Average MTT [1, 19]: 0.286 | Average MTT [1, 20]: 0.043 | Average MTT [1, 21]: 0.045 | Average MTT [1, 22]: 0.044 | Average MTT [1, 23]: 0.344 | Average MTT [1, 24]: 0.049 | Average MTT [1, 25]: 0.05 | Average MTT [1, 26]: 0.049 | MTT 24 h ([1]; 0.1 μg/ml CDDP): 0.169 | MTT 48 h ([1]; 0.1 μg/ml CDDP): 0.24 | MTT 24 h ([1]; 1 μg/ml CDDP): 0.035 | MTT 48 h ([1]; 1 μg/ml CDDP): 0.035 | MTT 72 h ([1]; 1 μg/ml CDDP): 0.03 | MTT 24 h ([1]; 10 μg/ml CDDP): 0.048 | MTT 48 h ([1]; 10 μg/ml CDDP): 0.038 | MTT 72 h ([1]; 10 μg/ml CDDP): 0.035 | MTT 24 h ([1]; 100 μg/ml CDDP): 0.034 | MTT 48 h ([1]; 100 μg/ml CDDP): 0.039 | MTT 72 h ([1]; 100 μg/ml CDDP): 0.032 | ABSORBANCE ([2]; PANC-1, 48 h): 0.753 | ABSORBANCE ([2]; PANC-1, 72 h): 0.872 | Average CVE [2, 3]: 0.793 | Average CVE [2, 4]: 0.456 | Average CVE [2, 5]: 0.602 | Average CVE [2, 6]: 0.345 | Average CVE [2, 7]: 0.575 | Average CVE [2, 8]: 0.249 | Average CVE [2, 9]: 0.33 | Average CVE [2, 10]: 0.323 | Average CVE [2, 11]: 0.839 | Average CVE [2, 12]: 0.514 | Average CVE [2, 13]: 0.49 | Average CVE [2, 14]: 0.385 | Average CVE [2, 15]: 0.476 | Average CVE [2, 16]: 0.457 | Average CVE [2, 17]: 0.698 | Average CVE [2, 18]: 0.428 | Average CVE [2, 19]: 0.753 | Average CVE [2, 20]: 0.395 | Average CVE [2, 21]: 0.218 | Average CVE [2, 22]: 0.18 | Average CVE [2, 23]: 0.872 | Average CVE [2, 24]: 0.358 | Average CVE [2, 25]: 0.421 | Average CVE [2, 26]: 0.253 | CVE 24 h ([2]; 0.1 μg/ml CDDP): 0.324 | CVE 48 h ([2]; 0.1 μg/ml CDDP): 0.717 | CVE 72 h ([2]; 0.1 μg/ml CDDP): 0.676 | CVE 24 h ([2]; 1 μg/ml CDDP): 0.125 | CVE 48 h ([2]; 1 μg/ml CDDP): 0.429 | CVE 72 h ([2]; 1 μg/ml CDDP): 0.262 | CVE 24 h ([2]; 10 μg/ml CDDP): 0.191 | CVE 48 h ([2]; 10 μg/ml CDDP): 0.466 | CVE 72 h ([2]; 10 μg/ml CDDP): 0.337 | CVE 24 h ([2]; 100 μg/ml CDDP): 0.153 | CVE 48 h ([2]; 100 μg/ml CDDP): 0.381 | CVE 72 h ([2]; 100 μg/ml CDDP): 0.28

From US20190343908A1, “Therapeutic Combination for the Treatment of Cancer” (Nerium Biotechnology Inc., priority 2011, published 2019)
